For one experiment, the target named is His-tagged KRAS G12D protein (Homo sapiens, UniProt P01116, G12D). The experiment can be described thus: KRAS G12D TR-FRET assay (binding). The conditions noted are these: biotinylated KRPep-2d substrate, GDP in assay buffer. (In general: In TR-FRET formats the signal depends on donor and acceptor labels being close together.)
His-tagged KRAS G12D protein, sequence (P01116 1-188 isoform P01116-2 G12D): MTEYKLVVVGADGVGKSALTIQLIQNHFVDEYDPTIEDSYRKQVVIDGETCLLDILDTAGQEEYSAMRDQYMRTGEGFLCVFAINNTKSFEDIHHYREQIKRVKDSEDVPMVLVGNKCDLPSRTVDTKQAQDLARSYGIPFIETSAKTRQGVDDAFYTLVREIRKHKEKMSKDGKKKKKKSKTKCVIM
Procedure: The plate was incubated for 30 minutes at room temperature. Biotinylated KRPep-2d substrate (Amgen) was diluted to 20 nM in Assay Buffer and 2 L was added to all wells and incubated for 1 hour at room temperature. Detection Reagent (0.4 nM LANCE Eu-W1024 Anti-6xHis (Perkin Elmer AD0401), 5 nM streptavidin-d^2 (Cisbio 610SADLA)) was prepared in Assay Buffer, then 4 μL was added to the plate and incubated for 1 hour at room temperature.
On to `CCc1c(F)ccc2cc(O)cc(-c3ncc4c(N5CCCOCC5)nc(OC[C@@H]5C[C@@H](F)CN5C)nc4c3F)c12` [Example 9, 5-Ethyl-6-fluoro-4-(8-fluoro-2-(((2S,4R)-4-fluoro-1-methylpyrrolidin-2-yl)methoxy)-4-(1,4-oxazepan-4-yl)pyrido[4,3-d]pyrimidin-7-yl)naphthalen-2-ol], for which the IC50 (in general, the concentration that inhibits the measured activity by half) was determined as 8 nM.
`CCc1c(F)ccc2cc(O)cc(-c3ncc4c(N5CCCOC(CO)C5)nc(OC[C@@]56CCCN5C[C@H](F)C6)nc4c3F)c12` (stereo partly drawn) [Example 56, 5-Ethyl-6-fluoro-4-(8-fluoro-2-(((2R, 7aS)-2-fluorotetra-hydro-1H-pyrrol-izin-7a(5H)-yl)-methoxy)-4-(2-(hydroxymethyl)-1,4-oxazepan-4-yl)pyrido[4,3-d]pyrimidin-7-yl)-naphthalen-2-ol] displayed an IC50 of 3 nM.
For the compound `CCc1c(F)ccc2cc(O)cc(-c3ncc4c(N5C[C@H]6CCC[C@@H](C5)O6)nc(OC[C@@]56CCCN5C[C@H](F)C6)nc4c3F)c12` [Example 64, 4-(4-((1R,5S)-9-oxa-3-azabicyclo [3.3.1]nonan-3-yl)-8-fluoro-2-(((2R, 7aS)-2-fluorotetra-hydro-1H-pyrrolizin-7a(5H)-yl)methoxy)-pyrido[4,3-d]pyrim-idin-7-yl)-5-ethyl-6-fluoronaphthalen-2-ol], the IC50 turned out to be 44 nM.
`CCc1c(F)ccc2cc(O)cc(-c3ncc4c(N5CCCOCC5)nc(OCC5(CO)CC5)nc4c3F)c12` [Example 77, 5-Ethyl-6-fluoro-4-(8-fluoro-2-((1-(hydroxymethyl)cyclopropyl)methoxy)-4-(1,4-oxazepan-4-yl)pyrido[4,3-d]pyrimidin-7-yl)naphthalen-2-ol] showed an IC50 of 41 nM.
Same read-out and setting: the figure for `CCc1c(F)ccc2cc(O)cc(-c3ncc4c(N5CCCOCC5)nc(OCC5(C#N)CCNC5)nc4c3F)c12` (centres unmarked) [Example 31, 3-(((7-(8-ethyl-7-fluoro-3-hydroxynaphthalen-1-yl)-8-fluoro-4-(1,4-oxazepan-4-yl)pyrido[4,3-d]pyrimidin-2-yl)oxy)methyl) pyrrolidine-3-carbonitrile] is 11 nM; for `CCc1c(F)ccc2cc(O)cc(-c3ncc4c(N5CCOCC(C(N)=O)C5)nc(OC[C@@]56CCCN5C[C@H](F)C6)nc4c3F)c12` (single isomer, unassigned) [Example 46] it is 17 nM.
The same measure, in the same setting: the figure for `CCc1c(F)ccc2cc(O)cc(-c3ncc4c(N5CCCOCC5)nc(OCC5(C)CCC(=O)N5)nc4c3F)c12` (centres unmarked) [Example 30, 5-(((7-(8-ethyl-7-fluoro-3-hydroxynaphthalen-1-yl)-8-fluoro-4-(1,4-oxazepan-4-yl)pyrido[4,3-d]pyrimidin-2-yl)oxy)methyl)-5-methylpyrrolidin-2-one] is 37 nM.
Still for that read-out and setting: the figure for `CCc1c(F)ccc2cc(O)cc(-c3ncc4c(N5CCCOCC5)nc(OCC5(C#N)CCN(C)C5)nc4c3F)c12` (centres unmarked) [Example 33, 3-(((7-(8-ethyl-7-fluoro-3-hydroxynaphthalen-1-yl)-8-fluoro-4-(1,4-oxazepan-4-yl)pyrido[4,3-d]pyrimidin-2-yl)oxy)methyl)-1-methylpyrrolidine-3-carbonitrile] is 27 nM.
`CCc1c(F)ccc2cc(O)cc(-c3ncc4c(N5CCOC(CC#N)C5)nc(OC[C@@]56CCCN5C[C@H](F)C6)nc4c3F)c12` (stereo partly drawn) [Example 65, 2-(4-(7-(8-Ethyl-7-fluoro-3-hydroxy-naphthalen-1-yl)-8-fluoro-2-(((2R,7aS)-2-fluorotetrahydro-1H-pyrrolizin-7a(5H)-yl)methoxy)-pyrido[4,3-d]pyrim-idin-4-yl)morpholin-2-yl)acetonitrile]: the IC50 amounted to 43 nM.
`CCc1c(F)ccc2cc(O)cc(-c3ncc4c(N5CCSC(CO)C5)nc(OC[C@@]56CCCN5C[C@H](F)C6)nc4c3F)c12` (stereo partly drawn) [Example 40, 5-Ethyl-6-fluoro-4-(8-fluoro-2-(((2R,7aS)-2-fluorotetrahydro-1H-pyrrolizin-7a(5H)-yl)methoxy)-4-(2-(hydroxymethyl)thiomorpholino)pyrido[4,3-d]pyrimidin-7-yl)naphthalen-2-ol]: the IC50 is 6 nM.
In the case of `CCc1c(F)ccc2cc(O)cc(-c3ncc4c(N5CCOCC[C@H]5C)nc(OC[C@@]56CCCN5C[C@H](F)C6)nc4c3F)c12` [Example 54, 5-Ethyl-6-fluoro-4-(8-fluoro-2-(((2R,7aS)-2-fluorotetrahydro-1H-pyrrolizin-7a(5H)-yl)methoxy)-4-((R)-5-methyl-1,4-oxazepan-4-yl)pyrido[4,3-d]pyrimidin-7-yl)naphthalen-2-ol], the IC50 turned out to be 7 nM.
As to `CCc1c(F)ccc2cc(O)cc(-c3ncc4c(N5CCCOC(C(=O)NC)C5)nc(OC[C@@]56CCCN5C[C@H](F)C6)nc4c3F)c12` (single isomer, unassigned) [Example 43], the IC50 came out at 249 nM.
`CCc1c(F)ccc2cc(O)cc(-c3ncc4c(N5CCOCC[C@@H]5C)nc(OC[C@@]56CCCN5C[C@H](F)C6)nc4c3F)c12` [Example 55, 5-Ethyl-6-fluoro-4-(8-fluoro-2-(((2R, 7aS)-2-fluorotetra-hydro-1H-pyrrol-izin-7a(5H)-yl)-methoxy)-4-((S)-5-methyl-1,4-oxazepan-4-yl)-pyrido[4,3-d]pyrimidin-7-yl)-naphthalen-2-ol]: the IC50 stood at 7 nM.
Compound `CCc1c(F)ccc2cc(O)cc(-c3ncc4c(N5CCOC(C(F)F)C5)nc(OC[C@@]56CCCN5C[C@H](F)C6)nc4c3F)c12` (stereo partly drawn) [Example 75, 4-(4-(2-(Difluoromethyl)morpholino)-8-fluoro-2-(((2R,7aS)-2-fluorotetrahydro-1H-pyrrolizin-7a(5H)-yl)methoxy)pyrido[4,3-d]pyrimidin-7-yl)-5-ethyl-6-fluoronaphthalen-2-ol] came in with an IC50 of 52 nM.
Consider `CCc1c(F)ccc2cc(O)cc(-c3ncc4c(N5CCOCC(C(=O)NC)C5)nc(OC[C@@]56CCCN5C[C@H](F)C6)nc4c3F)c12` (single isomer, unassigned) [Example 44], for which the IC50 was determined as 26 nM.
Regarding `CCc1c(F)ccc2cc(O)cc(-c3ncc4c(N5CC6COCC(C5)C6O)nc(OC[C@@]56CCCN5C[C@H](F)C6)nc4c3F)c12` (stereo partly drawn) [Example 58, 7-(7-(8-Ethyl-7-fluoro-3-hydroxy-naphthalen-1-yl)-8-fluoro-2-(((2R,7aS)-2-fluorotetrahydro-1H-pyrrolizin-7a(5H)-yl)meth-oxy)pyrido[4,3-d]pyrimidin-4-yl)-3-oxa-7-azabicyclo [3.3.1]nonan-9-ol], the IC50 came out at 14 nM.
In turn, `CCc1c(F)ccc2cc(O)cc(-c3ncc4c(N5CCCOC(C(=O)NC)C5)nc(OC[C@@]56CCCN5C[C@H](F)C6)nc4c3F)c12` (single isomer, unassigned) [Example 42] gave an IC50 of 2 nM.
The compound `CCc1c(F)ccc2cc(O)cc(-c3ncc4c(N5CCOC(CO)C5)nc(OC[C@@]56CCCN5C[C@H](F)C6)nc4c3F)c12` (stereo partly drawn) [Example 60, 5-Ethyl-6-fluoro-4-(8-fluoro-2-(((2R, 7aS)-2-fluorotetra-hydro-1H-pyrrol-izin-7a(5H)-yl)-methoxy)-4-(2-(hydroxymethyl)-morpholino)pyrido [4,3-d]pyrimidin-7-yl)naphthalen-2-ol] yielded an IC50 of 15 nM.

A further experiment concerns Phosphorylation of ERK1/2 in AsPC-1 cells. The experiment can be described thus: Phospho-ERK1/2 MSD assay. The settings on record: Homo sapiens, ASPC1, read-out: 2 h p-ERK (AsPC-1 cells), IC50 (μM), 2 hours compound treatment. It is filed as cell-based. On the procedure:
Sixteen hours prior to compound treatment, AsPC-1 cells were seeded in 96-well cell culture plates at a density of 25,000 cells/well and incubated at 37° C., 5% CO2. A compound dose-response titration was diluted in growth media, added to appropriate wells of a cell culture plate, and then incubated at 37° C., 5% CO2 for 2 hours.
Turning to `CCc1c(F)ccc2cc(O)cc(-c3ncc4c(N5CCCOCC5)nc(OC[C@@H]5C[C@@H](F)CN5C)nc4c3F)c12` [Example 9, 5-Ethyl-6-fluoro-4-(8-fluoro-2-(((2S,4R)-4-fluoro-1-methylpyrrolidin-2-yl)methoxy)-4-(1,4-oxazepan-4-yl)pyrido[4,3-d]pyrimidin-7-yl)naphthalen-2-ol], the IC50 came to 0.353 µM.
On the same count and under the same terms, the figure for `CCc1c(F)ccc2cc(O)cc(-c3ncc4c(N5CCCOC(CO)C5)nc(OC[C@@]56CCCN5C[C@H](F)C6)nc4c3F)c12` (stereo partly drawn) [Example 56, 5-Ethyl-6-fluoro-4-(8-fluoro-2-(((2R, 7aS)-2-fluorotetra-hydro-1H-pyrrol-izin-7a(5H)-yl)-methoxy)-4-(2-(hydroxymethyl)-1,4-oxazepan-4-yl)pyrido[4,3-d]pyrimidin-7-yl)-naphthalen-2-ol] is 0.081 µM.
With `CCc1c(F)ccc2cc(O)cc(-c3ncc4c(N5CCOC[C@@H](CO)C5)nc(OC[C@@]56CCCN5C[C@H](F)C6)nc4c3F)c12` [Example 50, 5-Ethyl-6-fluoro-4-(8-fluoro-2-(((2R, 7aS)-2-fluorotetra-hydro-1H-pyrrol-izin-7a(5H)-yl)-methoxy)-4-((R)-6-(hydroxymeth-yl)-1,4-oxazepan-4-yl)pyrido[4,3-d]pyrimidin-7-yl)-naphthalen-2-ol], the 50% inhibitory concentration (IC50) was found to be 0.07 µM.
Regarding `CCc1c(F)ccc2cc(O)cc(-c3ncc4c(N5CCOC[C@@H](O)C5)nc(OC[C@@]56CCCN5C[C@H](F)C6)nc4c3F)c12` [Example 25, (S)-4-(7-(8-Ethyl-7-fluoro-3-hydroxynaphthalen-1-yl)-8-fluoro-2-(((2R,7aS)-2-fluorotetrahydro-1H-pyrrolizin-7a(5H)-yl)methoxy)pyrido [4,3-d]pyrimidin-4-yl)-1,4-oxazepan-6-ol], the IC50 is 0.292 µM.
Take `CCc1c(F)ccc2cc(O)cc(-c3ncc4c(N5CCCOCC5)nc(OC[C@]56CCCN5C[C@H](F)C6)nc4c3F)c12` [Example 41, 5-ethyl-6-fluoro-4-(8-fluoro-2-(((2R, 7aR)-2-fluorotetra-hydro-1H-pyrrol-izin-7a(5H)-yl)-methoxy)-4-(1,4-oxazepan-4-yl)pyr-ido[4,3-d]pyrimi-din-7-yl)naphtha-len-2-ol]: the IC50 turned out to be 0.035 µM.
Take `CCc1c(F)ccc2cc(O)cc(-c3ncc4c(N5CCOC[C@H](O)C5)nc(OC[C@@]56CCCN5C[C@H](F)C6)nc4c3F)c12` [Example 26, (R)-4-(7-(8-Ethyl-7-fluoro-3-hydroxynaphthalen-1-yl)-8-fluoro-2-(((2R,7aS)-2-fluorotetrahydro-1H-pyrrolizin-7a(5H)-yl)methoxy)pyrido [4,3-d]pyrimidin-4-yl)-1,4-oxazepan-6-ol]: the concentration for half-maximal inhibition (IC50) turned out to be 2.27 µM.
Still for that read-out and setting: the figure for `CCc1c(F)ccc2cc(O)cc(-c3ncc4c(N5CCOCC(C)(O)C5)nc(OC[C@@]56CCCN5C[C@H](F)C6)nc4c3F)c12` (single isomer, unassigned) [Example 69] is 0.004 µM; for `Oc1cc(-c2ncc3c(N4CCCOCC4)nc(OC[C@@]45CCCN4C[C@H](F)C5)nc3c2F)c2ccccc2c1` [Example 14, 4-(8-Fluoro-2-(((2R,7aS)-2-fluorotetrahydro-1H-pyrrolizin-7a(5H)-yl)methoxy)-4-(1,4-oxazepan-4-yl)pyrido[4,3-d]pyrimidin-7-yl)naphthalen-2-ol] it is 0.794 µM.

The values above are taken from US20250122222A1, “HETEROCYCLIC COMPOUNDS AND METHODS OF USE” (AMGEN INC., priority 2021, published 2025).
